Target: T1, human GPR119 (Homo sapiens, UniProt Q8TDV5)
T1 sequence (Q8TDV5 1-308 limits assumed): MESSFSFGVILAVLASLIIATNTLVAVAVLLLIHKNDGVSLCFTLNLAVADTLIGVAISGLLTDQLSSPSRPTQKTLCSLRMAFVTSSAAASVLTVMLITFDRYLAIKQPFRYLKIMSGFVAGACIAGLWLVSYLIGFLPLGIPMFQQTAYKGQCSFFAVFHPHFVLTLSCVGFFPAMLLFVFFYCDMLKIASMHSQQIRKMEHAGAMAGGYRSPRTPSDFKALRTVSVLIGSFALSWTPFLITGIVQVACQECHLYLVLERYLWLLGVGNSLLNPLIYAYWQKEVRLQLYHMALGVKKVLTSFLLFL
Test: Measurement of GPR119 signaling by cAMP (LANCE cAMP kit or HTRF) in HEK293 cells transfected with human GPR119
Type: cell-based
Conditions: agonist cAMP response in HEK293 cells stably transfected with human GPR119; patent does not say which of the two cAMP formats (LANCE or HTRF)
Description: Measurement of GPR119 Signaling Using LANCE 384-Well cAMP Kit
The adenylate cyclase assay was constructed following the LANCE™ cAMP Kit (Perkin Elmer, AD0264) instructions. […] The reaction was stopped by incubating with the supplied detection buffer containing the europium chelate of the Eu-SA/Biotin-cAMP tracer for 3 hours. The assay was performed in duplicate in a 384 well plate for duplicate plates. […] Basal activity was determined using a DMSO control and maximum response was defined as cAMP stimulation produced by an internal agonist control. Standard cAMP concentrations were assayed concurrently for conversion of fluorescence signal to cAMP level. The data was analyzed using 4-parameter curve fit in Microsoft Excel
Measurement of GPR119 Signaling Using a Cyclic AMP (cAMP) Homogenous Time Resolved Fluorescence (HTRF) Assay
Chinese hamster ovary (CHO) cell lines stably transfected with the permissive guanine nucleotide binding protein alpha 15 (Gα15) and murine GPR119 were maintained in DMEM media containing FBS, penicillin-streptomycin, puromycin, and G418 (geneticin). […] Agonist activation of the GPR119 receptor was measured in receptor transfected cells described above, treated with compounds of this invention, using a commercial homogenous time resolved fluorescence (HTRF) kit for measurement of cAMP (CisBio, Bedford, Mass.). The assay was performed in 96-well half-volume plates (murine) or 384-well plates (human) following the manufacturers instructions. Briefly, suspended cells were incubated with a dose titration of test compound at room temperature for 60 min, lysed, and incubated with HTRF reagents for an additional 60 min. The plate was read using an Envision multilabel reader (Perkin Elmer) adjusted to read time resolved fluorescence and the cAMP concentrations were extrapolated from a cAMP calibration curve. […] The concentration of test compound required to stimulate a half-maximal response (EC50), and efficacy as compared to an internal agonist control, was determined from a sigmoidal 4-parameter curve fit of the resulting plot of normalized activity versus compound concentration.

EC50 [nM] | Compound
6.5 | CC1(NC(=O)Cc2ccc(OCC[C@@H]3C[C@@H]3C3CCN(c4ncc(Cl)cn4)CC3)cc2F)CCCC1 [Example 94]
0.29 | O=C(Cc1ccc(OCC[C@@H]2C[C@@H]2C2CCN(c3ncc(Cl)cn3)CC2)cc1F)N1CCc2cncnc2C1 [Example 129]
0.14 | COCc1cnc(N2CCC([C@H]3C[C@H]3CCOc3cc(F)c(CC(=O)N4CC(F)C4)c(F)c3)CC2)nc1 [Example 220]
1.5 | O=C(Cc1ccc(OCC[C@@H]2C[C@@H]2C2CCN(c3ncc(Cl)cn3)CC2)cc1F)N1CCn2cnnc2C1 [Example 138]
1.1 | CC1CN(C(=O)Cc2ccc(OCC[C@@H]3C[C@@H]3C3CCN(c4ncc(Cl)cn4)CC3)cc2F)Cc2nnc(C(F)(F)F)n21 (stereo partly drawn) [Example 175]
2.5 | CNC(=O)Cc1c(F)cc(OCC[C@@H]2C[C@@H]2C2CCN(c3ncc(COC)cn3)CC2)cc1F [Example 227]
0.22 | O=C(Cc1ccc(OCC[C@@H]2C[C@@H]2C2CCN(c3ncc(Cl)cn3)CC2)cc1F)N1CC(O)C1 [Example 65]
3.6 | COCc1cnc(N2CCC([C@H]3C[C@H]3CCOc3ccc(CC(=O)N4CC(C)(O)C4)c(F)c3)CC2)nc1 [Example 44]
0.89 | O=C(Cc1ccc(OCC[C@@H]2C[C@@H]2C2CCN(c3ncc(Cl)cn3)CC2)cc1)N1CC(F)C1 [Example 6]
2.3 | COCc1cnc(N2CCC([C@H]3C[C@H]3CCOc3ccc(CC(=O)N(C)C)c(Cl)c3)CC2)nc1 [Example 28, 2-(2-chloro-4-{2-[(1S,2R)-2-{1-[5-(methoxymethyl)pyrimidin-2-yl]piperidin-4-yl}cyclopropyl]ethoxy}phenyl)-N,N-dimethylacetamide]
2.8 | CN(CC1CCCCO1)C(=O)Cc1ccc(OCC[C@@H]2C[C@@H]2C2CCN(c3ncc(Cl)cn3)CC2)cc1F (stereo partly drawn) [Example 156]
3.2 | CC1(C)CCN1C(=O)Cc1ccc(OCC[C@@H]2C[C@@H]2C2CCN(c3ncc(Cl)cn3)CC2)cc1F [Example 97]
6.6 | CN(Cc1n[nH]c(=O)[nH]1)C(=O)Cc1ccc(OCC[C@@H]2C[C@@H]2C2CCN(c3ncc(Cl)cn3)CC2)cc1F [Example 158]
5.5 | COCc1cnc(N2CCC([C@H]3C[C@H]3CCOc3ccc(CC(=O)N4CCC4)cc3F)CC2)nc1 [Example 251]
2.4 | O=C(Cc1ccc(OCC[C@@H]2C[C@@H]2C2CCN(c3ncc(Cl)cn3)CC2)cc1F)N1CCc2cn[nH]c2C1 [Example 182]
6.3 | Cn1ccc2c1CCN(C(=O)Cc1ccc(OCC[C@@H]3C[C@@H]3C3CCN(c4ncc(Cl)cn4)CC3)cc1F)C2 [Example 145]
3 | COCc1cnc(N2CCC([C@H]3C[C@H]3CCOc3ccc(CC(=O)N4CC(F)(F)C4)cc3)CC2)nc1 [Example 12]
0.11 | CCOc1cnc(N2CCC([C@H]3C[C@H]3CCOc3cc(F)c(CC(=O)N4CC(F)C4)c(F)c3)CC2)nc1 [Example 230]
1.2 | CCOCc1cnc(N2CCC([C@H]3C[C@H]3CCOc3ccc(CC(=O)N4CC(OC)C4)c(F)c3)CC2)nc1 [Example 203]
4.1 | Fc1cc(OCC[C@@H]2C[C@@H]2C2CCN(c3ncc(Cl)cn3)CC2)ccc1Cc1nnco1 [Example 245, 5-chloro-2-{4-[(1R,2S)-2-(2-{3-fluoro-4-[(1,3,4-oxadizol-2-yl)methyl]phenoxy}ethyl)cyclopropyl]piperidin-1-yl}pyrimidine]
4.3 | NC(=O)C1CCN1C(=O)Cc1ccc(OCC[C@@H]2C[C@@H]2C2CCN(c3ncc(Cl)cn3)CC2)cc1F (stereo partly drawn) [Example 106]
4.2 | CC1(O)CCN(C(=O)Cc2ccc(OCC[C@@H]3C[C@@H]3C3CCN(c4ncc(Cl)cn4)CC3)cc2F)C1 (stereo partly drawn) [Example 74]
3.2 | CC(C)(O)Cn1cc2c(n1)CN(C(=O)Cc1ccc(OCC[C@@H]3C[C@@H]3C3CCN(c4ncc(Cl)cn4)CC3)cc1F)C2 [Example 124]

EC50 [nM] | Compound
0.73 | Cc1cc(OCC[C@@H]2C[C@@H]2C2CCN(c3ncc(Cl)cn3)CC2)ccc1CC(=O)N1CCC1 [Example 15, 1-(azetidin-1-yl)-2-[4-(2-{(1S,2R)-2-[1-(5-chloropyrimidin-2-yl)piperidin-4-yl]cyclopropyl}ethoxy)-2-methylphenyl]ethanone]
0.41 | CN(C(=O)Cc1ccc(OCC[C@@H]2C[C@@H]2C2CCN(c3ncc(Cl)cn3)CC2)cc1F)C1CCOC1 (stereo partly drawn) [Example 154]
1.1 | CC1c2nnc(C(F)(F)F)n2C(C)CN1C(=O)Cc1ccc(OCC[C@@H]2C[C@@H]2C2CCN(c3ncc(Cl)cn3)CC2)cc1F (stereo partly drawn) [Example 193]
0.98 | COCc1cnc(N2CCC([C@H]3C[C@H]3CCOc3ccc(CC(=O)N4CC5CC5C4)c(F)c3)CC2)nc1 (stereo partly drawn) [Example 51]
1.2 | O=C(Cc1ccc(OCC[C@@H]2C[C@@H]2C2CCN(c3ncc(Cl)cn3)CC2)cc1F)N1CCn2nc(C3CC3)nc2C1 [Example 148]
3.8 | COC[C@@H]1CCCN1C(=O)Cc1ccc(OCC[C@@H]2C[C@@H]2C2CCN(c3ncc(Cl)cn3)CC2)cc1F [Example 78]
1.7 | CN(CCO)C(=O)Cc1ccc(OCC[C@@H]2C[C@@H]2C2CCN(c3ncc(Cl)cn3)CC2)cc1F [Example 170]
6.7 | COCc1cnc(N2CCC([C@H]3C[C@H]3CCOc3cc(F)c(Cc4nnco4)c(F)c3)CC2)nc1 [Example 247]
2.9 | COCc1cnc(N2CCC([C@H]3C[C@H]3CCOc3ccc(CC(=O)N4CC(OC)C4)cc3)CC2)nc1 [Example 8]
0.17 | COC1CN(C(=O)Cc2ccc(OCC[C@@H]3C[C@@H]3C3CCN(c4ncc(Cl)cn4)CC3)cc2F)C1 [Example 69]
0.98 | COc1cnc(N2CCC([C@H]3C[C@H]3CCOc3ccc(CC(=O)N4CC(OC)C4)c(F)c3)CC2)nc1 [Example 34]
9.3 | CC1(NC(=O)Cc2ccc(OCC[C@@H]3C[C@@H]3C3CCN(c4ncc(Cl)cn4)CC3)cc2F)CCCCC1 [Example 91]
7.1 | COc1cc(OCC[C@@H]2C[C@@H]2C2CCN(c3ncc(Cl)cn3)CC2)ccc1CC(=O)N1CCC1 [Example 26, 1-(azetidin-1-yl)-2-[4-(2-{(1S,2R)-2-[1-(5-chloropyrimidin-2-yl)piperidin-4-yl]cyclopropyl}ethoxy)-2-methoxyphenyl]ethanone]
0.76 | O=C(Cc1ccc(OCC[C@@H]2C[C@@H]2C2CCN(c3ncc(Cl)cn3)CC2)cc1F)N1CCOCC1 [Example 80]
0.4 | COCc1cnc(N2CCC([C@H]3C[C@H]3CCOc3cc(F)c(CC(=O)N(C)C)c(F)c3)CC2)nc1 [Example 224]
5.1 | Cc1nnc(Cc2ccc(OCC[C@@H]3C[C@@H]3C3CCN(c4ncc(Cl)cn4)CC3)cc2F)o1 [Example 244, 5-chloro-2-{4-[(1R,2S)-2-(2-{3-fluoro-4-[(5-methyl-1,3,4-oxadizol-2-yl)methyl]phenoxy}ethyl)cyclopropyl]piperidin-1-yl}pyrimidine]
0.8 | CC1(C)CN(C(=O)Cc2ccc(OCC[C@@H]3C[C@@H]3C3CCN(c4ncc(Cl)cn4)CC3)cc2F)C1 [Example 70]
2 | COCc1cnc(N2CCC([C@H]3C[C@H]3CCOc3cc(F)c(CC(=O)N4CC(C(C)(C)O)C4)c(F)c3)CC2)nc1 [Example 222]
0.96 | O=C(Cc1ccc(OCC[C@@H]2C[C@@H]2C2CCN(c3ncc(Cl)cn3)CC2)cc1F)N1CCc2nccnc2C1 [Example 125]
0.33 | O=C(Cc1ccc(OCC[C@@H]2C[C@@H]2C2CCN(c3ncc(Cl)cn3)CC2)cc1F)N1CC(F)C1 [Example 68]
10.3 | CC(C)CCN(C)C(=O)Cc1ccc(OCC[C@@H]2C[C@@H]2C2CCN(c3ncc(Cl)cn3)CC2)cc1F [Example 109]
2.5 | Cc1cnc(Cc2ccc(OCC[C@@H]3C[C@@H]3C3CCN(c4ncc(Cl)cn4)CC3)cc2F)o1 [Example 243, 5-chloro-2-{4-[(1R,2S)-2-(2-{3-fluoro-4-[(5-methyl-1,3-oxazol-2-yl)methyl]phenoxy}ethyl)cyclopropyl]piperidin-1-yl}pyrimidine]
